Data as given in patent publication US9815787B2, “Sulfonamide derivative or pharmaceutically acceptable acid addition salt thereof” (UNIVERSITY OF TSUKUBA, priority 2013, dated 2017).

Biological target: T1, OX2R (Homo sapiens, UniProt O43614)
T1 construct: expressed in transfected cells; host or cells: CHO (Chinese hamster ovary) cells constitutively expressing the OX2R gene and NFAT-luciferase (CHOOX2R)
T1 sequence (O43614 1-444): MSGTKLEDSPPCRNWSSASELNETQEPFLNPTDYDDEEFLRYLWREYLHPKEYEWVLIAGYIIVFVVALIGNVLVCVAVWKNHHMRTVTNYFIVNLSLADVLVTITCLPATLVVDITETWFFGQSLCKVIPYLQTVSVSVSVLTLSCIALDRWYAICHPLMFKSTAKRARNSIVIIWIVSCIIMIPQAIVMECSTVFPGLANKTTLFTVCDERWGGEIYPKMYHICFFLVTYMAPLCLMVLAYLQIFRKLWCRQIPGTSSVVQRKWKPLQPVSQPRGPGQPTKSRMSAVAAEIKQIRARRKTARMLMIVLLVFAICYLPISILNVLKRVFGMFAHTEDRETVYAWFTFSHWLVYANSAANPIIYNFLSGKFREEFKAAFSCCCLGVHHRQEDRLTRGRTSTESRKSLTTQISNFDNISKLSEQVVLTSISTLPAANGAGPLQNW
Test: Evaluation of agonist activity against OX2R (CHOOX2R cells, Fura2AM fluorescence, FDSS3000)
Assay type: cell-based
Details: for Response (0.1 μM (%)): test compound 0.1 μM; for Response (0.1 μM (%)) / Response (1.0 μM (%)) / Response (10 μM (%)) / EC50: CHOOX2R cells; for Response (0.1 μM (%)) / Response (1.0 μM (%)) / Response (10 μM (%)): relative to orexin-A as full agonist (100%); for Response (1.0 μM (%)): test compound 1.0 μM; for Response (10 μM (%)): test compound 10 μM; for EC50: OX2R agonist activity; for Emax: conversion with orexin-A as full agonist (maximum agonist activity 100%)
Experimental: Evaluation of Agonist Activity Against OX2R
NFAT-luciferase gene and OX2R gene were each constitutively expressed in CHO cell, which is a cell line derived from Chinese hamster ovary to establish a cell line (CHOOX2R). The cells thereof were sown on a 96 well plate at 10000 cells/well, and cultured in a 5% FBS-added DMEM medium for 48 hr. […] After washing, HEPES buffer (75 μL) was added, a test compound solution (25 μL) was added, and changes in the fluorescence intensity were measured by FDSS3000 (Hamamatsu Photonics K.K.). The test compound was dissolved in DMSO (final concentration of DMSO was 1%), and diluted with HEPES buffer to a final concentration of 0.1 μM, 1.0 μM or 10 μM.

Response (0.1 μM (%)) [%]	Response (1.0 μM (%)) [%]	Response (10 μM (%)) [%]	EC50 [nM]	Emax [%]	Compound
23	144	122			COc1ccc(-c2cccc(C(=O)N(C)C)c2)cc1S(=O)(=O)Nc1cccc(NCCNC(=O)c2cccc(Cl)n2)c1 [Example 55, 6-chloro-N-(2-((3-(3′-(dimethylcarbamoyl)-4-methoxy-[1,1′-biphenyl]-3-ylsulfonamido)phenyl)amino)ethyl)picolinamide]
<5	9	87			COc1ccc(-c2cccc(C(=O)N(C)C)c2)cc1S(=O)(=O)Nc1cccc(NCCNC(=O)c2cnccc2Cl)c1 [Example 57, 4-chloro-N-(2-((3-(3′-(dimethylcarbamoyl)-4-methoxy-[1,1′-biphenyl]-3-ylsulfonamido)phenyl)amino)ethyl)nicotinamide]
<5	130	119			COc1ccc(-c2cccc(C(=O)N(C)C)c2)cc1S(=O)(=O)Nc1cccc(NCCNC(=O)c2cncc(Cl)c2)c1 [Example 58, 5-chloro-N-(2-((3-(3′-(dimethylcarbamoyl)-4-methoxy-[1,1′-biphenyl]-3-ylsulfonamido)phenyl)amino)ethyl)nicotinamide]
<5	<5	64			COc1ccc(-c2cccc(C(=O)N(C)C)c2)cc1S(=O)(=O)Nc1cccc(NCCNC(=O)c2ccnn2C)c1 [Example 59, N-(2-((3-(3′-(dimethylcarbamoyl)-4-methoxy-[1,1′-biphenyl]-3-ylsulfonamido)phenyl)amino)ethyl)-1-methyl-1H-pyrazole-5-carboxamide]

The next lines start with the compound.

Compound	Response (0.1 μM (%)) [%]	Response (1.0 μM (%)) [%]	Response (10 μM (%)) [%]	EC50 [nM]	Emax [%]
COc1ccc(-c2cccc(C(=O)N(C)C)c2)cc1S(=O)(=O)Nc1cccc(NCCNC(=O)c2cccnc2Cl)c1 [Example 50, 2-chloro-N-(2-((3-(3′-(dimethylcarbamoyl)-4-methoxy-[1,1′-biphenyl]-3-ylsulfonamido)phenyl)amino)ethyl)nicotinamide]	<5	71	76		
COc1ccc(-c2cccc(C(=O)N(C)C)c2)cc1S(=O)(=O)Nc1cccc(NCCNC(=O)c2ncccc2Cl)c1 [Example 51, 3-chloro-N-(2-((3-(3′-(dimethylcarbamoyl)-4-methoxy-[1,1′-biphenyl]-3-ylsulfonamido)phenyl)amino)ethyl)picolinamide]	<5	9	87	3280	87
COc1ccc(-c2cccc(C(=O)N(C)C)c2)cc1S(=O)(=O)Nc1cccc(NCCNC(=O)c2cccc(F)c2)c1 [Example 52, 3′-(N-(3-((2-(3-fluorobenzamido)ethyl)amino)phenyl)sulfamoyl)-4′-methoxy-N,N-dimethyl-[1,1′-biphenyl]-3-carboxamide]	40	79	64	783	84
COc1ccc(-c2cccc(C(=O)N(C)C)c2)cc1S(=O)(=O)Nc1cccc(NCCNC(=O)c2cc(F)ccc2F)c1 [Example 53, 3′-(N-(3-((2-(2,5-difluorobenzamido)ethyl)amino)phenyl)sulfamoyl)-4′-methoxy-N,N-dimethyl-[1,1′-biphenyl]-3-carboxamide]	46	89	66	1150	87
COc1ccc(-c2cccc(C(=O)N(C)C)c2)cc1S(=O)(=O)Nc1cccc(NCCNC(=O)c2cc(F)cc(F)c2)c1 [Example 54, 3′-(N-(3-((2-(3,5-difluorobenzamido)ethyl)amino)phenyl)sulfamoyl)-4′-methoxy-N,N-dimethyl-[1,1′-biphenyl]-3-carboxamide]	33	168	126	630	94
